From patent publication US20230087950A1, “METHOD FOR SYNTHESIZING DOPA OLIGOPEPTIDE INTERMEDIATE AND USE, COMPOSITION AND PREPARATION THEREOF” (HAINAN UNIVERSITY, priority 2019, published 2023)
Entries after “also recorded” stand apart in the source; their conditions may differ. Where a SMILES comes first, the peptide text is derived from it. [ ]: non-standard residue; d: D form. The star is where a group is joined. Dopa = N[C@@H](Cc1ccc(O)c(O)c1)C(=O)O; Stearoyl = CCCCCCCCCCCCCCCCCC(=O)*; Palmitoyl = CCCCCCCCCCCCCCCC(=O)*; Myristoyl = CCCCCCCCCCCCCC(=O)*

How the values were obtained:
[1] = Gelation tests of L-DOPA-containing lipodipeptides in organic solvent/water; type: physicochemical; conditions: for Gel formation: organic solvents (MeOH, ethanol, toluene, THF, DMSO, DMF) with water; for Gel formation / Range of gelation concentrations: result in words
Method: (§1) 1) Six samples of 40 mg FDD-16 was added into six 2 ml centrifuge tubes, followed by addition of 1 ml of respective organic solvents. Mother solutions were prepared using MeOH, ethanol, toluene, THF, DMSO, and DMF, respectively.
(§2) 2) Aliquots of 50 μl of the above mother solutions were added, respectively, to nine 2 ml centrifuge tubes, followed by addition of organic solvents (MeOH, ethanol, toluene, THF, DMSO, DMF, respectively). The volume ratios of the organic solvent to distilled water were 1:9, 2:8, 3:7, 4:6, 5:5, 6:4, 7:3, 8:2 and 9:1, respectively. Tests of each solvent ratio were repeated 3 times. Gel formation rates and the corresponding sample concentrations were marked down.
The experiments were performed like those of FDD-16.

[2] = Gelation tests of conjugates of fatty acid and L-DOPA in organic solvent/water; type: physicochemical; conditions: Table 3
Method: as §1, §2
Tests were performed according to the tests done for FDD-16.

[3] = rat liver homogenate; cited from earlier work
[4] = Appearance and stability of gels by turning the tubes upside down; type: physicochemical; conditions: tubes turned upside down, standing for long time
Description: The appearance and stability of gels formed from FDD-16 was studied by turning the tubes upside down and. […] This shed lights on future druggability study of FDD-16 using MeOH, ethanol, THF, DMSO and DMF as solvents. See FIG. 1 for gel formation experiments.

[5] = in vivo; cited from earlier work

SMILES	Gelation concentration ([1]; DMF/water, Table 2)	Gelation concentration ([1]; DMSO/water, Table 2)	Gelation concentration ([1]; Ethanol/water, Table 1)	Gelation concentration ([1]; MeOH/water, Table 1)	Range of gelation concentrations [1]	Gel formation [1]	further results
CCCCCCCCCCCCCCCCCC(=O)N[C@@H](Cc1ccc(O)c(O)c1)C(=O)O [FD-18]							Gelation concentration ([2]; Ethanol/water): 10~14 g/mL; Gelation concentration ([2]; MeOH/water): 10~15 g/mL
N[C@@H](Cc1ccc(O)c(O)c1)C(=O)N[C@@H](CC(=O)O)C(=O)O [H-DOPA-Asp-OH] (H-[Dopa]-Asp-OH)							half-life [3]: about 174 min
CSCC[C@H](NC(=O)[C@@H](N)Cc1ccc(O)c(O)c1)C(=O)O [H-DOPA-Met-OH] (H-[Dopa]-Met-OH)							half-life [3]: 16 min
N[C@@H](Cc1ccc(O)c(O)c1)C(=O)O [L-DOPA]							bioavailability [5]: 1-3%; time of effective blood drug concentration [5]: 50 min

Now from value to molecule, other results behind:

Gelation concentration ([1]; DMF/water, Table 2)	Gelation concentration ([1]; DMSO/water, Table 2)	Gelation concentration ([1]; Ethanol/water, Table 1)	Gelation concentration ([1]; MeOH/water, Table 1)	Range of gelation concentrations [1]	SMILES	Gel formation [1]	further results
14~26 g/mL	16~30 g/mL	12~26 g/mL	10~16 g/mL	narrower than those of FDD-16 and FDD-14	CCCCCCCCCCCCCCCCCC(=O)N[C@@H](Cc1ccc(O)c(O)c1)C(=O)N[C@@H](CC(=O)O)C(=O)O [FDD-18] (Stearoyl-[Dopa]-Asp-OH)	could form stable gels; also recorded: formed gels in MeOH, ethanol, DMSO and DMF; also recorded: higher possibilities to form gels; also recorded: can form stable gels	
6~20 g/mL	8~22 g/mL	8~20 g/mL	8~22 g/mL	wide range of gelation concentrations	CCCCCCCCCCCCCC(=O)N[C@@H](Cc1ccc(O)c(O)c1)C(=O)N[C@@H](CC(=O)O)C(=O)O [FDD-14] (Myristoyl-[Dopa]-Asp-OH)	could form stable gels; also recorded: formed gels in MeOH, ethanol, THF, DMSO and DMF; also recorded: higher possibilities to form gels; also recorded: can form stable gels	Gelation concentration ([1]; THF/water, Table 2): 6~8 g/mL
6~22 g/mL	6~28 g/mL	6~24 g/mL	6~26 g/mL	wide range of gelation concentrations	CCCCCCCCCCCCCCCC(=O)N[C@@H](Cc1ccc(O)c(O)c1)C(=O)N[C@@H](CC(=O)O)C(=O)O [FDD-16] (Palmitoyl-[Dopa]-Asp-OH)	could form stable gels; also recorded: formed gels in MeOH, ethanol, THF, DMSO and DMF; also recorded: can form stable gels	Appearance and stability of gel [4]: in good condition and remained at the bottom while standing for long time; Gelation concentration ([1]; THF/water, Table 2): 8~12 g/mL
